In patent US20180098969A1, “HODGKIN LYMPHOMA THERAPY” (Purdue Pharmaceutical Products L.P., priority 2016, published 2018):

Legend:
[1] = system: Hodgkin lymphoma cell lines; test: Apoptosis, annexin V-FITC and Hoechst double staining; type: cell-based, human; conditions: 5 μM, 24 h and 48 h, all cells
Protocol: (§1) This assay was performed on 7 cell lines (HDLM2 was excluded due to the low number of available cells) at 24 h and 48 h following EDO-S101 treatment (5 μM, DMSO). Control cells were cultured in the same final concentration of DMSO. Only viable cells (using Hoechst staining) were focused on, and all necrotic cells were excluded. Apoptosis was determined using annexin V-FITC and Hoechst (33342) double staining according to the manufacturer's instructions (BD Biosciences). Cell-cycle fractions were determined by Hoechst nuclear staining. Briefly, cells were harvested, washed in PBS, incubated with annexin V-FITC and Hoechst solution for 30 minutes at room temperature. Data were collected using a FACSCalibur flow cytometer (BD Biosciences) and analyzed with FlowJo Version 7.5.5 obtainable from FlowJo, LLC. Results represent the mean value of 3 independent experiments.

L540 cell = test: as above; type: cell-based, human; conditions: 5 μM, 24 h and 48 h
Protocol: as §1

[2] = system: Hodgkin lymphoma cell lines; test: Mitotic index and chromosomal aberrations; type: cell-based, human
Protocol: (§2) The mitotic index and chromosomal aberrations for each of the cell lines were evaluated after treatment with either 20 μmol or 10 μmol EDO-S101 in DMSO. Each cell line was cultured at 37° C. in the presence of RPMI 1640 supplemented with 10% FCS and antibiotics. Colcemid (0.1 ug/ml) was added 2 h before harvesting and slides with chromosomes in metaphase were prepared following the standard methanol/acetic acid (3/1, v/v) procedure. The slides were stored at −20° C. until use.
(§3) FISH was performed using a combination of standard procedures from the recommended protocols for chromosome analysis, following telomere and centromere staining, using PNA probes. In all, 100 metaphases were scored per in vitro dose exposure.
(§4) The mitotic index was determined by measurement of the sum of all cells in prophase, metaphase, anaphase and telophase divided by the total number of cells.

L540 cell line = test: Mitotic index and chromosomal aberrations; type: cell-based, human
Protocol: as §2, §3, §4

KMH2 cell line = test: Mitotic index and chromosomal aberrations; type: cell-based, human
Protocol: as §2, §3, §4

R100 cell line = test: ATM/ATR transcripts; type: cell-based, human; conditions: EDO-S101 alone
Protocol: 1.56 μM of EDO-S101 was administered to two Hodgkin lymphoma cell lines, the bendamustine naïve cell line L1236 and the bendamustine resistant cell line R100. In a second experiment, Brentuximab Vedotin was administered at a concentration of 3.12 μg/ml to the L1236 cell line and at a concentration of 0.39 μg/ml to the R100 cell line. Finally, in a third experiment EDO-S101 and Brentuximab Vedotin were administered in combination to each of the two cell lines at the same concentrations that they were administered in the monotherapy experiments.

CD14 cells = test: CD14-positive cells by flow cytometry in xenografted mice; type: in vivo, NSG mice
Protocol: Cells were gated to exclude apoptotic or necrotic cells and sorted into CD30−/CD15− and CD30+ and CD15+/CD30+ fractions by gating on the lowest and highest 5% PE-expressing cells, respectively. Following sorting, the CD30−/CD15− cell fractions were analyzed using a FACScan flow cytometer (Becton Dickinson) and found to be more than 98% pure. For phenotypic analyses of cell lines or sorted cells, cells were prepared as described, and then stained with mouse anti-human CD30-phycoerthrin (PE), CD15-fluorescein isothyocyanate (FITC), CD14-APC-cyanine 7 (Cy7) and CD45-APC (all antibodies from BD PharMingen, San Diego, Calif.). […] Cells were subsequently analysed using a FACS LSRII (Becton Dickinson, Franklin Lakes, N.J.). […]
Novel biomarkers CD68 and CD14 which are expressed by tumour associated macrophages and myeloid derived suppressor cells respectively in the microenvironment have recently been reported to affect the prognosis of Hodgkin lymphoma (Haematologica, 2011 Feb; 96(2): 186-189). The presence of the CD14-positive cells following administration of a single dose of EDO-S101 (60 mg/kg or 80 mg/kg) and after two administrations of EDO-S101 at 60 mg/kg was evaluated using flow cytometry with anti CD14 antibodies.

Cn1c(CCCCCCC(=O)NO)nc2cc(N(CCCl)CCCl)ccc21 [EDO-S101]
sensitivity for apoptosis [1]: high sensitivity
sensitivity for apoptosis (L540 cell): higher sensitivity
metaphases observed ([2]; 10 μmol): only a few metaphases of poor quality
metaphases observed ([2]; 20 μmol, any cell line): No metaphases were observed
sensitivity in mitotic index assay ([2]; all cell lines, 24 h of treatment): remarkably high sensitivity
mitotic index (L540 cell line): very low mitotic index
mitotic index (KMH2 cell line): very low mitotic index
chromosomal aberrations in metaphase (KMH2 cell line; telomere and centromere staining): numerous chromosomal aberrations
effect on ATM/ATR unbalance (R100 cell line): upregulating ATR and downregulating ATM transcripts
frequency of CD14 cells (CD14 cells; 2×60 mg/kg versus single 80 mg/kg): higher frequency following treatment with 2×60 mg/kg than treatment with a single dose of 80 mg/kg
frequency of CD14 cells (CD14 cells; treated versus untreated mice): significantly higher frequency of CD14 cells in untreated mice compared to treated mice
